Columns and labels:
Type in all cases: binding
[1] = tested on: human monoclonal antibody CRJB
[2] = tested on: human monoclonal antibody CRJA
[3] = tested on: human monoclonal antibody CR57
[4] = tested on: human monoclonal antibody CR57; remark: listed apart in the source
[5] = tested on: human monoclonal antibody CRJA; remark: listed apart in the source
[6] = tested on: human monoclonal antibody CRJB; remark: listed apart in the source

Row | Sequence | Binding of CRJB (10 μg/ml) to looped/cyclic peptide (PEPSCAN-ELISA signal) [1] | Binding of CRJA to linear peptide (PEPSCAN-ELISA signal) [2] | Binding of CR57 (10 μg/ml) to looped/cyclic peptide (PEPSCAN-ELISA signal) [3] | Binding of CR57 to linear peptide (PEPSCAN-ELISA signal) [4] | Binding of CRJA (10 μg/ml) to looped/cyclic peptide (PEPSCAN-ELISA signal) [5] | Binding of CRJB to linear peptide (PEPSCAN-ELISA signal) [6] | Binding of CRJB (10 μg/ml) to looped/cyclic peptide (PEPSCAN-ELISA) [1] | Binding of CR57 (10 μg/ml) to looped/cyclic peptide (PEPSCAN-ELISA) [3] | Binding of CRJA (10 μg/ml) to looped/cyclic peptide (PEPSCAN-ELISA) [5] | Binding of CRJB to looped/cyclic peptide (PEPSCAN-ELISA signal) [1] | Binding of human monoclonal antibody CRJA to linear peptide (PEPSCAN-ELISA signal) [2] | Binding of CR57 to looped/cyclic peptide (PEPSCAN-ELISA signal) [3] | Binding of human monoclonal antibody CR57 to linear peptide (PEPSCAN-ELISA signal) [4] | Binding of CRJA to looped/cyclic peptide (PEPSCAN-ELISA signal) [5] | Binding of human monoclonal antibody CRJB to linear peptide (PEPSCAN-ELISA signal) [6] | binding of antibody CRJA to looped/cyclic peptide (PEPSCAN OD) [5] | binding of antibody CR57 to linear peptide (PEPSCAN OD) [4]
1 | AVSSTYCSTNHDYTI | 79 | 102 | 129 | 71 | 91 | 105 |  |  |  |  |  |  |  |  |  |  | 
2 | PRLGMSCDIFTNSRG | 89 | 108 | 87 | 72 | 96 | 112 |  |  |  |  |  |  |  |  |  |  | 
3 | ASKGSETCGFVDERG |  | 106 |  | 97 |  | 108 | 94 | 96 | 120 |  |  |  |  |  |  |  | 
4 | ISPSVADLDPYDRSL | 64 | 56 | 66 | 50 | 46 | 119 |  |  |  |  |  |  |  |  |  |  | 
5 | VHLPDVHNQVSGVDL |  |  |  |  |  |  |  |  |  | 94 | 104 | 105 | 110 | 92 | 114 |  | 
6 | LRTVKTTKESLVIIS | 68 | 83 | 89 | 65 | 86 | 104 |  |  |  |  |  |  |  |  |  |  | 
7 | FPIYTILDKLGPWSP | 63 | 88 | 65 | 42 | 57 | 105 |  |  |  |  |  |  |  |  |  |  | 
8 | YCSTNHDYTIWMPEN | 71 | 76 | 65 | 47 | 468 | 92 |  |  |  |  |  |  |  |  |  | clearly bound | 
9 | SLLQQHMELLESSVI |  | 108 |  | 124 |  | 163 | 85 | 113 | 101 |  |  |  |  |  |  |  | 
10 | VAVSSTYCSTNHDYT | 83 | 106 | 103 | 85 | 88 | 114 |  |  |  |  |  |  |  |  |  |  | 
11 | CDIFTNSRGKRASKG | 90 | 133 | 1 | 42 | 101 | 104 |  |  |  |  |  |  |  |  |  |  | 
12 | LKGACKLKLCGVLGL |  | 100 |  | 340 |  | 90 | 76 | 105 | 87 |  |  |  |  |  |  |  | bound
13 | KSLKGACKLKLCGVL |  | 91 |  | 129 |  | 113 | 97 | 106 | 113 |  |  |  |  |  |  |  | 
14 | GFSYMELKVGYILAI | 57 | 91 | 77 | 65 | 71 | 111 |  |  |  |  |  |  |  |  |  |  | 
15 | DPRYEESLHNPYPDY | 65 | 92 | 76 | 57 | 91 | 110 |  |  |  |  |  |  |  |  |  |  | 
16 | RAAYNWKMAGDPRYE | 101 | 92 | 141 | 90 | 86 | 130 |  |  |  |  |  |  |  |  |  |  | 
17 | KREECLDALESIMTT |  | 83 |  | 102 |  | 113 | 64 | 137 | 100 |  |  |  |  |  |  |  | 
